Assay results taken from publication PMC4114018 (Science signaling, 2013).

What was measured:
rat GPR17 (rGPR17) = rat GPR17 (rGPR17) (Rattus norvegicus, UniProt Q09QM4); test: label-free DMR and second messenger assays, HEK293 cells; format: cell-based; conditions: agonist
mouse GPR17 (mGPR17) = mouse GPR17 (mGPR17) (Mus musculus, UniProt Q6NS65); test: as above; format: cell-based; conditions: agonist
Sequence of mouse GPR17 (mGPR17) (Q6NS65 whole entry): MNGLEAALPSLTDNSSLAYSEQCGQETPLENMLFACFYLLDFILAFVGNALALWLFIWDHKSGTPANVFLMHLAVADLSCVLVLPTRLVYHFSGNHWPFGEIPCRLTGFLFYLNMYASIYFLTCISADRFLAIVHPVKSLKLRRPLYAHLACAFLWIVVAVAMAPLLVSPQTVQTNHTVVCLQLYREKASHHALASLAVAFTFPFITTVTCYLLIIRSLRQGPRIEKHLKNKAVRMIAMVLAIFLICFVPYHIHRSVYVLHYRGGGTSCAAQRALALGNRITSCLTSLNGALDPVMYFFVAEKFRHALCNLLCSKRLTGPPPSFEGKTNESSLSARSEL

Sequence of rat GPR17 (rGPR17) (Q09QM4 whole entry): as the sequence (Q6NS65 whole entry) above, with N2D, A6T, S15A, A270S counted along it

## O=C(O)CCc1c(C(=O)O)[nH]c2cc(Cl)cc(Cl)c12 [compound 2, 2-carboxy-4,6-dichloro-1H-indole-3-propionic acid]
Rat GPR17 (rGPR17)
  EC50: concentration-dependent activation of rGPR17 and mGPR17 was observed
Mouse GPR17 (mGPR17)
  EC50: concentration-dependent activation of rGPR17 and mGPR17 was observed
